Source: patent publication US12599672B2, “KRAS proteolysis targeting chimeras” (PAQ Therapeutics Inc., priority 2023, dated 2026)

What was measured:
[1] = biological target: T1, KRAS G12V (Homo sapiens, UniProt P01116, G12V); experiment: KRAS G12V HiBit assay; type: cell-based; conditions: SW620-KRAS (G12V)-HiBit-KI cells, compound treatment for 24 hours, class symbols
T1 construct: SW620-KRAS (G12V)-HiBit-KI cell (Pharmaron); host or cells: SW620-KRAS (G12V)-HiBit-KI cells (HiBiT knock-in at the endogenous KRAS locus)
T1 sequence (P01116 1-188 isoform P01116-2 G12V): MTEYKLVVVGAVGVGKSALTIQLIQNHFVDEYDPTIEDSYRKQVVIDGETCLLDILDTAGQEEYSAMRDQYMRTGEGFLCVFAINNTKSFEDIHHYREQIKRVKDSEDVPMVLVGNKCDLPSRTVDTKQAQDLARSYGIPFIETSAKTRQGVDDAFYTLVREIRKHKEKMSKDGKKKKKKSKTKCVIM
How it was run: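 HiBiT-tagged KRAS G12V cells treated 24 h with compound in a 3-fold, 10-point series (0.3 mM DMSO stock); lytic HiBiT reagent with LgBiT added after 15 min room-temperature equilibration. Degradation calculated against 0.1% DMSO high control.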

[2] = biological target: T2, KRAS G12D (Homo sapiens, UniProt P01116, G12D); experiment: KRAS G12D HiBit assay; type: cell-based; conditions: AsPc-1-KRAS (G12D)-HiBit-KI cell, compound treatment for 24 hours, absolute DC50
T2 construct: AsPc-1-KRAS (G12D)-HiBit-KI cell (Pharmaron); host or cells: AsPc-1-KRAS (G12D)-HiBit-KI cells (HiBiT knock-in at the endogenous KRAS locus)
T2 sequence (P01116 1-188 isoform P01116-2 G12D): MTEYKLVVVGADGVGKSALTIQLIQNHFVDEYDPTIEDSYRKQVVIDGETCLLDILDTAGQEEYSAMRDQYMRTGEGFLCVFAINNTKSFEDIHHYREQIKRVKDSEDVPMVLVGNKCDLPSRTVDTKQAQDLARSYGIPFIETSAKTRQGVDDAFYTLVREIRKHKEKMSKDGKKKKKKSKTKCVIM
How it was run: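 Cells were treated for 24 h with compounds in a 3-fold, 10-point dilution series from a 0.3 mM DMSO stock, then equilibrated 15 min at room temperature. KRAS G12D HiBiT levels were read by luminescence after lytic Nano-Glo HiBiT reagent with LgBiT; inhibition calculated relative to 0.1% DMSO high control.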

Structure (SMILES)	DC50 [1]	DC50 ([2]; class symbols)	DC50 ([2]; numeric bounds given in place of class symbols)
CCc1c(F)ccc2cc(O)cc(-c3ncc4c(N5CCC[C@@](C)(O)C5)nc(OC[C@@]56CCCN5[C@H](COC(=O)N5CCC(C#Cc7cccc8c7n(C)c(=O)n8C7CCC(=O)NC7=O)CC5)CC6)nc4c3F)c12 (stereo partly drawn) [Compound 403, ((3S,7aS)-7a-(((7-(8-ethyl-7-fluoro-3-hydroxynaphthalen-1-yl)-8-fluoro-4-((R)-3-hydroxy-3-methylpiperidin-1-yl)pyrido[4,3-d]pyrimidin-2-yl)oxy)methyl)hexahydro-1H-pyrrolizin-3-yl)methyl 4-((1-(2,6-dioxopiperidin-3-yl)-3-methyl-2-oxo-2,3-dihydro-1H-benzo[d]imidazol-4-yl)ethynyl)piperidine-1-carboxylate]	> 100 nM	–	> 100 nM
CCc1c(F)ccc2cc(O)cc(-c3ncc4c(N5CCC[C@@](C)(O)C5)nc(OC[C@@]56CCCN5[C@H](COC(=O)N5CCC(N7CCC(Oc8ccc9c(c8)n(C)c(=O)n9C8CCC(=O)NC8=O)CC7)CC5)CC6)nc4c3F)c12 (stereo partly drawn) [Compound 439, ((3S,7aS)-7a-(((7-(8-ethyl-7-fluoro-3-hydroxynaphthalen-1-yl)-8-fluoro-4-((R)-3-hydroxy-3-methylpiperidin-1-yl)pyrido[4,3-d]pyrimidin-2-yl)oxy)methyl)hexahydro-1H-pyrrolizin-3-yl)methyl 4-((1-(2,6-dioxopiperidin-3-yl)-3-methyl-2-oxo-2,3-dihydro-1H-benzo[d]imidazol-5-yl)oxy)-[1,4′-bipiperidine]-1′-carboxylate]	< 10 nM	< 100 nM	–

Second part, the compound after the results:

DC50 [1]	DC50 ([2]; class symbols)	DC50 ([2]; numeric bounds given in place of class symbols)	Structure (SMILES)
10 to 100 nM	< 100 nM	–	CCc1c(F)ccc2cc(O)cc(-c3ncc4c(N5CCC[C@@](C)(O)C5)nc(OC[C@@]56CCCN5[C@H](COC(=O)N5CCC(CN7CC(c8ccc9c(c8)n(C)c(=O)n9C8CCC(=O)NC8=O)C7)CC5)CC6)nc4c3F)c12 (stereo partly drawn) [Compound 395, ((3S,7aS)-7a-(((7-(8-ethyl-7-fluoro-3-hydroxynaphthalen-1-yl)-8-fluoro-4-((R)-3-hydroxy-3-methylpiperidin-1-yl)pyrido[4,3-d]pyrimidin-2-yl)oxy)methyl)hexahydro-1H-pyrrolizin-3-yl)methyl 4-((3-(1-(2,6-dioxopiperidin-3-yl)-3-methyl-2-oxo-2,3-dihydro-1H-benzo[d]imidazol-5-yl)azetidin-1-yl)methyl)piperidine-1-carboxylate]
< 10 nM	< 100 nM	–	CCc1c(F)ccc2cc(O)cc(-c3ncc4c(N5CCC[C@@](C)(O)C5)nc(OC[C@@]56CCCN5[C@H](COC(=O)N5CC7CC(C5)C7CN5CCC(c7ccc8c(c7)n(C)c(=O)n8C7CCC(=O)NC7=O)CC5)CC6)nc4c3F)c12 (stereo partly drawn) [Compound 400, ((3S,7aS)-7a-(((7-(8-ethyl-7-fluoro-3-hydroxynaphthalen-1-yl)-8-fluoro-4-((R)-3-hydroxy-3-methylpiperidin-1-yl)pyrido[4,3-d]pyrimidin-2-yl)oxy)methyl)hexahydro-1H-pyrrolizin-3-yl)methyl 6-((4-(1-(2,6-dioxopiperidin-3-yl)-3-methyl-2-oxo-2,3-dihydro-1H-benzo[d]imidazol-5-yl)piperidin-1-yl)methyl)-3-azabicyclo[3.1.1]heptane-3-carboxylate]
10 to 100 nM	< 100 nM	–	CCc1c(F)ccc2cc(O)cc(-c3ncc4c(N5CCC[C@@](C)(O)C5)nc(OC[C@@]56CCCN5[C@H](COC(=O)N5CC7C(CN8CCC(c9ccc%10c(c9)n(C)c(=O)n%10C9CCC(=O)NC9=O)CC8)C7C5)CC6)nc4c3F)c12 (stereo partly drawn) [Compound 401, ((3S,7aS)-7a-(((7-(8-ethyl-7-fluoro-3-hydroxynaphthalen-1-yl)-8-fluoro-4-((R)-3-hydroxy-3-methylpiperidin-1-yl)pyrido[4,3-d]pyrimidin-2-yl)oxy)methyl)hexahydro-1H-pyrrolizin-3-yl)methyl 6-((4-(1-(2,6-dioxopiperidin-3-yl)-3-methyl-2-oxo-2,3-dihydro-1H-benzo[d]imidazol-5-yl)piperidin-1-yl)methyl)-3-azabicyclo[3.1.0]hexane-3-carboxylate]
